“Also recorded” adds a separate entry of the source. Like-named read-outs stand apart in the source and are kept apart here. Blank lines part the entries; values can stand above or below the molecule they belong to.
Tests used:
APP/PS1 and NT mice [1] = experiment: Isolation-induced aggression test; format: in vivo; conditions: 30 mg/kg/day in drinking water
Protocol: Isolation-induced aggression: All test mice (‘residents’) had been housed in individual cages for at least 3 weeks prior to the start of this test. ‘Intruders’ were NT male C57B1/J6 mice, 16-20 weeks old at the time of testing, housed in groups of 4-8 since weaning. A randomly chosen intruder was placed in the resident's cage, and aggression of the resident was assessed by measuring attack latency, i.e. the time in seconds between the introduction of the intruder into the cage and the first attack by the resident. […]
Statistical analysis All statistical analyses were performed using SPSS for Windows software, version 11.5.1 (SPSS, Chicago, Ill.). The effects of genotype, treatment, training day, and their interaction with the behavioral parameters of exploratory activity and performance in the Morris water maze were evaluated by analysis of variance (ANOVA) for repeated measures. […]

Fisher 344 rats = conditions: 30 mg/kg/day for 8 weeks, Barnes et al. 1996; cited from earlier work
[2] = Dose-finding pilot study: steady-state plasma concentration of memantine; format: in vivo, male C57BL/6J mice; conditions: male, C57BL/6J, mouse, mean±SEM, read-out: steady-state plasma level
Text: (§1) Transgenic mice expressing either human PS1 harboring the familial AD-linked A246E mutation or chimeric mouse/human APP695 harboring a human Aβ domain and mutations (K595N, M596L) linked to Swedish familial AD pedigrees (APPswe) (Borchelt et al., 1997) were back-crossed to C57BL/6J for 16 generations and then crossed together to generate double transgenic mice co-expressing both transgenes. In all tests, 8-month-old double-mutant male mice (APP/PS1; n=45) and their non-transgenic littermates (NT; n=36, ) were used. […] The therapeutic dose of memantine was defined as the dose producing a steady-state plasma drug level of ˜1 μM and was determined in 8-month-old male C57 BL/6J mice (background strain of the transgenic mice).
Dose-finding pilot study: A pilot study was undertaken to determine the therapeutic dose of memantine [i.e., the dose of memantine producing a steady-state plasma drug level of around 1 μM, which several preclinical and clinical studies have indicated is therapeutic (Kornhuber and Quack, 1995; Zajaczkowski et al., 1996)] to be used in subsequent experiments in transgenic mice. Memantine (Forest Research Institute, Jersey City, N.J.) was administered orally (via drinking water) to male C57BL/6J mice at the doses of 10 mg/kg/day (n=10), 30 mg/kg/day (n=10) and 100 mg/kg/day (n=10) for 4 weeks. The placebo group (n=10) had drinking water without memantine. Blood samples were taken from the femoral vein 4 weeks after the initiation of drug treatment to determine the steady-state plasma concentration of memantine. Plasma samples were analyzed at Merz Pharmaceuticals GmbH (Frankfurt am Main, Germany) using a gas chromatograph system coupled with a mass selective detector (Kornhuber and Quack., 1995).

[3] = test system: human neuroblastoma cells SK-N-SH; experiment: Cellular toxicity, LDH assay; format: cell-based; conditions: 1-4 μM
Protocol: (§2) Cell culture and drug treatment. Human neuroblastoma (SK-N-SH, ATCC HTB-11, Biedler et al., Cancer Res. 1973, 33(11): 2643-52) cells were seeded at approximately 2×10^6 cells/well in a 6-well plate. Thereafter, drug concentrations of memantine were initiated at 0 μg/ml (control), 0.25 μg/ml (1 μM), 0.5 μg/ml (2 μM), and 1.0 μg/ml (4 μM) in MEM media supplemented with 1% FBS and 1× antibiotic. Treatment period was 12 days with a collection of conditioned media (CM) at 3 day intervals. Following collection, fresh memantine-media was added and the process repeated until harvest on day 12. The levels of both sAPP and Aβ40 were determined as described below.
Cell Toxicity and Viability Assays. Cell viability in control and memantine-treated samples was measured using MTT (the tetrazolium dye 3-[4,5-dimethylthiazol-2-yl]-2,5-diphenyltetrazolium bromide). Cellular toxicity was measured uding lactate dehydrogenase (LDH) (Sigma, St. Louis, Mo.) assay.

APP/PS1 and NT mice [4] = experiment: Morris water maze (spatial learning and memory); format: in vivo; conditions: 30 mg/kg/day; for time spent in the target area, probe trial: sixth day, 60 s, mean±sem
Text: as §1
Memantine treatment: Based on the pilot study, the dose of 30 mg/kg/day (see Results section for details) was chosen for the behavioral study and administered in drinking water for 3 weeks. Memantine was administered to 23 APP/PS1 mice and 19 NT mice. The placebo group (APP/PS1: n=22; NT: n=17) received drinking water without memantine. Behavioral testing started 2 weeks after treatment onset and continued for one week. After two weeks of treatment, mice were tested for exploratory activity, isolation-induced aggression, and performance in the Morris water maze.
Morris water maze: The Morris water maze was used to measure spatial learning and memory. The apparatus was a black plastic pool with a diameter of 120 cm. A black escape platform (square, 14×14 cm) was located 1.0 cm below (hidden) the water surface. The temperature of the water was kept constant throughout the experiment (20±0.5° C.), and a 10-min recovery period was allowed between the training trials. First, the mice were pre-trained to find and climb onto the platform for two days by using an alley (1 m×14 cm×25 cm) leading to the platform located 1 cm below the water. The training consisted of 8 consecutive days of testing, with 5 trials per day. […] During the first 5 days of testing the mice were trained with a hidden platform. The platform location was kept constant and the starting position varied between four constant locations at the pool rim. Mice were placed in the water with their nose pointing towards the wall at one of the starting points in a random manner. On the sixth day, the platform was removed and the mice were allowed to swim for 60 s to determine their search bias. On testing days 7 and 8, a black curtain was hung around the swimming pool in order to conceal all extra-maze visual cues. […] Timing of the latency to find the submerged platform was started and ended by the experimenter. A computer connected to an image analyzer (HVS Image®, Hampton, UK) monitored the swim pattern. During the water maze training, we measured swimming speed and latency to find the platform. The wall-swimming tendency (thigmotaxis) was assessed by dividing the pool into 3 concentric zones of equal surface area and calculating the time spent in the outer zone. Search bias during the probe trial was measured by calculating the time the mice spent in the vicinity of where the platform was previously located. We defined this as a target area centered on the platform with a diameter of 30 cm. This target area comprised 6.25% of the total surface area, thus a random swim for 60 s in the pool would yield a dwell time of 3.75 s in the target area during the probe trial.
(§3) Statistical analysis All statistical analyses were performed using SPSS for Windows software, version 11.5.1 (SPSS, Chicago, Ill.). The effects of genotype, treatment, training day, and their interaction with the behavioral parameters of exploratory activity and performance in the Morris water maze were evaluated by analysis of variance (ANOVA) for repeated measures. Attack latency from the isolation-aggression test was analyzed by two-way ANOVA with genotype and treatment as factors.

Aβ40 = Aβ40 levels in conditioned media by sandwich ELISA; format: cell-based, human; conditions: SK-N-SH cells; for levels of Aβ40 in conditioned media: 0.25-1.0 μg/ml (1-4 μM)
Protocol: as §2
Analysis of Aβ levels by ELISA. Quantitative solid phase sandwich ELISA (enzyme linked immunosorbent assay) was used to measure Aβ40 levels in the conditioned media samples. Specifically, an affinity purified anti-human Aβ (35-40) rabbit IgG was used as a capture antibody, and affinity purified HRP-conjugated anti-human Aβ (11-28) rabbit IgG Fab was used as a detection antibody (both reagents from IBL (Japan)). Since an antibody against Aβ (11-28) was used as a secondary conjugated antibody, human Aβ40 variants which cleaved at N-terminus sites were also detectable in the ELISA assay. TMB was used as a coloring agent (Chromogen). The measurement range was from 15.6 to ˜1,000 pg/ml (3.6 to ˜230.9 pmol/l).
(§4) Data Analysis. Data were analyzed from 3-6 independent cell culture experiments. Statistical analysis (e.g., analysis of variance and post-hoc tests for multiple comparisons) was performed using the SPSS program (Statistical Products and Services Solutions, Chicago, Ill.) and included the mean and the standard error of the mean.

sAPP = sAPP levels in conditioned media by Western blotting (mAb22C11); format: cell-based, human; conditions: SK-N-SH cells; for levels of sAPP in conditioned media: 0.25-1.0 μg/ml (1-4 μM)
Protocol: as §2
Analysis of sAPP levels by Western blotting. Levels of total sAPP in the CM samples were measured by denaturing polyacrylamide gel electrophoresis (SDS-PAGE) followed by the Western immunoblotting using mAb22C11 antibody. Samples were loaded on the gel at equal volume of conditioned media (30 μg protein/sample). The density of specific APP bands in the blot was quantified using the NIH Image software. Levels of APP were expressed as a percent of controls. Levels of the constitutively expressed β-actin protein were measured in parallel as an internal control.
as §4

rat hippocampal cells = conditions: Miguel-Hidalgo et al. 2002; cited from earlier work
APP/PS1 and NT mice [5] = experiment: Exploratory activity (TruScan automated activity monitor); format: in vivo; conditions: 30 mg/kg/day in drinking water, 10-min recording
Text: as §1, with “mice). […]” for “mice).”
Exploratory activity: TruScan® (Coulbourn Instruments, CO, USA) automated activity monitor based on infrared photo detection was used for monitoring exploratory activity. […] Activity was measured for 10 min in two separate sessions separated by 48 h.
as §3, with “Attack latency from the isolation-aggression test was analyzed by two-way ANOVA with genotype and treatment as factors.” left out

[6] = humans; Kornhuber and Quack 1995; cited from earlier work
[7] = test system: human neuroblastoma cells; conditions: Lahiri et al. 1998; cited from earlier work

concentration at 4 weeks ([2]; 10 mg/kg/day oral (drinking water)): 490 ± 60 nM
concentration at 4 weeks ([2]; 30 mg/kg/day oral (drinking water)): 1140 ± 70 nM
concentration at 4 weeks ([2]; 100 mg/kg/day oral (drinking water)): 5540 ± 400 nM
Compound: CC12CC3CC(C)(C1)CC(N)(C3)C2 [memantine, 1-amino-3,5-dimethyl adamantane]
aggressive behavior (latency to attack the intruder) (APP/PS1 and NT mice [1]; APP/PS1 mice): not significantly modified
aggressive behavior (APP/PS1 and NT mice [1]; NT mice): did not increase
water maze learning (Fisher 344 rats): improved water maze learning
cellular toxicity (LDH) [3]: not affected; also recorded: no toxicity
finding the visible platform (APP/PS1 and NT mice [4]; APP/PS1 mice (FIG. 11B), days 7-8): did not show a significant improvement
time spent in the outer zone of the pool (thigmotaxis) (APP/PS1 and NT mice [4]; APP/PS1 mice, p=0.04): significantly reduced
time spent in the target area, probe trial (APP/PS1 and NT mice [4]; APP/PS1 mice): 39.0 ± 2.0 s
escape latency, hidden platform (APP/PS1 and NT mice [4]; APP/PS1 mice, vs placebo-treated APP/PS1 mice, p=0.02): reduced
time spent in the outer zone of the pool (thigmotaxis) (APP/PS1 and NT mice [4]; NT mice, p=0.004): significantly reduced
escape latency (performance), hidden platform (APP/PS1 and NT mice [4]; NT mice, p=0.09 (not significant)): trend towards improved performance
time spent in the target area, probe trial (APP/PS1 and NT mice [4]; NT mice): 36.1 ± 2.6 s
performance level, hidden platform, compared with placebo-treated NT mice (APP/PS1 and NT mice [4]; memantine-treated APP/PS1 mice, Tukey's post-hoc p=0.96): did not differ
levels of Aβ40 in conditioned media (Aβ40; day 3): no significant changes
levels of Aβ40 in conditioned media (Aβ40; day 6, compared to negative control): significant decrease
levels of Aβ40 in conditioned media (Aβ40; day 9, compared to negative control): significant decrease
Aβ40 levels in the conditioned media (Aβ40; 1-4 μM for up to 12 days): a decrease in its levels
sAPP levels in the conditioned media (sAPP; 1 μM for 6-12 days): trend towards a decrease
levels of sAPP in conditioned media (sAPP; day 3): no significant changes
levels of sAPP in conditioned media (sAPP; day 6): dose-dependent decrease
levels of sAPP in conditioned media (sAPP; day 9 and day 12): persisting or further decreasing
sAPP levels in the conditioned media (sAPP; 2-4 μM for 6-12 days): significantly decreased
Aβ-induced apoptosis (rat hippocampal cells): protected
horizontal activity (distance traveled) (APP/PS1 and NT mice [5]): did not significantly affect
vertical activity (rearing) (APP/PS1 and NT mice [5]): did not significantly affect
therapeutically effective circulating concentration [6]: approximately 1 μM

Compound: Nc1c2c(nc3ccccc13)CCCC2 [tacrine]
cellular damage or toxicity [7]: absence of any detectable cellular damage or toxicity
release of Aβ40 [7]: reduce
release of Aβ42 [7]: reduce
release of sAPPα [7]: reduce
release of total Aβ [7]: reduce

From US20050113458A1, “Use of 1-aminocyclohexane derivatives to modify deposition of fibrillogenic a-beta peptides in amyloidopathies” (Forest Laboratories, Inc., priority 2003, published 2005)
